Experimental data as given in patent publication US4731486A, “Hydroformylation using low volatile phosphine ligands” (Union Carbide Corporation, priority 1986, dated 1988).

Columns and labels:
[1] = Batch hydroformylation of octene-1 (Examples 14, 15, 19)
Experimental: (§1) Each rhodium catalytic precursor solution so prepared was then employed to hydroformylate propylene in a magnetically stirred, 100 mL capacity, stainless steel autoclave which was attached to a gas manifold for introducing gases to the desired partial pressures. The autoclave was also equipped with a pressure calibrator for determining reaction pressure to ±0.01 psia. and a platinum resistance thermometer for determining reactor solution temperatures to ±0.10° C. The reactor was heated externally by two 300 watt heating bands. The reactor solution temperature was controlled by a platinum resistance sensor connected to an external proportional temperature controller for controlling the temperature of the external band heaters.
In each non-aqueous hydroformylation reaction, about 15 milliliters (about 14 grams) of the rhodium catalytic precursor solution so prepared was charged to the autoclave reactor under nitrogen and heated to the reaction temperature employed (as given in Table 1 below). The reactor was then vented down to 5 psig. and a premixed gas mixture of 1:1:1 carbon monoxide:hydrogen:propylene was introduced into the reactor via the gas manifold (partial pressures given in Table 1) and the propylene so hydroformylated.
(§2) The hydroformylation reaction rate in gram moles per liter per hour of C4 aldehydes produced was determined from sequential 5 psia. pressure drops in the reactor spanning the nominal operating pressure in the reactor, while the mole ratio of linear (n-butyraldehyde) to branched (2-methylpropionaldehyde) product was measured by gas chromatography and the results are given in Table 1 below.
The same procedure and conditions employed in Example 1 of preparing various rhodium catalytic precursor solutions using rhodium dicarbonyl acetylacetonate, about a 3:1 (wt.:wt. ratio) mixture of Texanol® and CARBOWAX® TPEG-990 (about 25 wt. %) as the solubilizing agent, and a monosulfonated triphenylphosphine sodium salt ligand having the formula [drawing 26] and hydroformylating an olefin was repeated employing the various rhodium complex catalyst precursor solutions and using different alpha olefins as the hydroformylation feedstocks and the reaction conditions as shown in Table 14 below.
The same procedure and conditions employed in Example 1 of preparing various rhodium catalytic precursor solutions using rhodium dicarbonyl acethylacetonate, a monosulfonated triphenylphosphine sodium salt ligand having the formula [drawing 27] and various mixtures of Texanol® and varying amounts (about 15 wt. % in Run No. 1 and about 10 wt. % in Run Nos. 2 to 5) of different added solubilizing agents as given in Table 15 below, and hydroformylating octene-1 was repeated employing the various rhodium complex catalyst precursor solutions and the reaction conditions as shown in Table 15 below.
A comparison of the catalytic activity of aqueous and non-aqueous solutions of monosulfonated triphenylphosphine sodium salt ligand promoted catalysts in hydroformylating various molecular weight alphe-olefins was determined as follows.

[2] = Batch hydroformylation of dodecene-1 (Examples 13, 14, 18, 19)
[3] = Batch hydroformylation of tetradecene-1 (Example 14); conditions: Texanol/TPEG-990 3:1; 100° C.; 300 ppm Rh; 8.7 wt. % ligand; 75 psia 4:1 H2:CO
Experimental: as §1
In each non-aqueous hydroformylation reaction, about 15 milliliters (about 14 grams) of the rhodium catalytic precursor solution so prepared was charged to the autoclave reactor under nitrogen and heated to the reaction temperature employed (as given in Table 1 below). […]
as §2, with “below. […]” for “below.”

[4] = Continuous single pass hydroformylation of butene-1 (Examples 3, 4, 5, 7, 12); conditions: Texanol/PEG-600 10:1
[5] = HPLC analysis of ligand concentration in hydroformylation reaction mediums; type: physicochemical; conditions: both reactors, six days of operation
[6] = Continuous catalyst liquid recycle hydroformylation of octene-1 (Example 6)
From the text: In a continuous catalyst liquid recycle manner, an olefin starting material of octene-1 was hydroformylated for six days as follows.
The liquid recycle reactor system employed contained two 2.8 liter stainless steel stirred tank reactors, connected in series, each containing a vertically mounted agitator and a circular tubular sparger near the bottom of the reactor for feeding the syn gas. The sparger contained a plurality of holes of sufficient size to provide the desired gas flow into the liquid body. Reactor 1 contained a silicone oil shell as means of bringing the contents of the reactors up to reaction temperature while the reaction solution in Reactor 2 was heated by an electrical heater. Both reactors contained internal cooling coils for controlling the reaction temperature. Reactors 1 and 2 were connected via a line to transfer any unreacted gases from reactor 1 to reactor 2 and were further connected via a line so that a portion of the liquid reaction solution containing aldehyde product and catalyst from reactor 1 could be pumped into reactor 2 wherein the unreacted olefin of reactor 1 is further hydroformylated in reactor 2.
Each reactor also contained a pneumatic liquid level controller for automatic control of the liquid levels in the reactors. Reactor 1 further contained a line for introducing the liquid olefin using a metering pump, and a line for introducing syn gas through the sparger, while make up syn gas was added to reactor 2 via the same transfer line carrying the unreacted syn gas from reactor 1. Reactor 2 also contained a blow-off vent for removal of the unreacted gases. A line from the bottom of reactor 2 was connected to the top of a vaporizer so that a portion of the liquid reaction solution could be pumped from reactor 2 to the vaporizer. The vaporizer was maintained at reduced pressure with the help of a vacuum pump. Vaporized aldehyde was disengaged from the non-volatilized components of the liquid reaction solution in the gas-liquid separator part of the vaporizer. The remaining non-volatilized catalyst containing liquid reaction solution was pumped through a recycle line back into reactor 1. The recycle line also contained a pneumatic liquid level controller. The vaporized aldehyde product was passed into a water-cooled condenser, liquified and collected in a product receiver.

[7] = Texanol/Benzonitrile (8:1), 90° C., 200 ppm Rh, 10 wt. % ligand, 75 psia 4:1 H2:CO
[8] = Texanol/Carbowax PEG 150, 90° C., 200 ppm Rh, 10 wt. % ligand, 75 psia 4:1 H2:CO
[9] = Texanol/Dimethyl Sulfoxide (5.5:1), 90° C., 200 ppm Rh, 10 wt. % ligand, 75 psia 4:1 H2:CO
[10] = Texanol/Niax PPG-1025, 90° C., 200 ppm Rh, 10 wt. % ligand, 75 psia 4:1 H2:CO
[11] = Texanol/Sulfolane (8:1), 90° C., 200 ppm Rh, 10 wt. % ligand, 75 psia 4:1 H2:CO
[12] = Texanol/TPEG-990 3:1, 100° C., 300 ppm Rh, 8.7 wt. % ligand, 75 psia 4:1 H2:CO
[13] = aqueous (water as solvent), 100° C., 300 ppm Rh, 90 psia 1:1 H2:CO
[14] = non-aqueous (Texanol/Carbowax TPEG990 2.6:1), 100° C., 300 ppm Rh, 90 psia 1:1 H2:CO
[15] = 25 ppm Rh, 100 °C, Ligand/Rhodium 10, H2 20, CO 40 psia, 5.0 ml olefin
[16] = 200 ppm Rh, 100 °C, Ligand/Rhodium 100, H2 10, CO 40 psia, 5.0 ml olefin
[17] = 200 ppm Rh, 100 °C, Ligand/Rhodium 100, H2 100, CO 40 psia, 5.0 ml olefin
[18] = 200 ppm Rh, 120 °C, Ligand/Rhodium 200, H2 20, CO 40 psia, 5.0 ml olefin
[19] = 500 ppm Rh, 70 °C, Ligand/Rhodium 50, H2 20, CO 40 psia, 5.0 ml olefin
[20] = heptanal, CARBOWAX PEG-600, 100° C., 200 ppm Rh, 60 psia 2:1 H2:CO, two liquid organic layers
[21] = heptanal, TERGITOL 15-S-3/NIAX PPG-1025/Dimethyl Sulfoxide (4:1:1), 100° C., 200 ppm Rh, 60 psia 2:1 H2:CO
[22] = heptanal, TERGITOL 24-L-75N/CARBOWAX TPEG-990 (4:1), 100° C., 200 ppm Rh, 60 psia 2:1 H2:CO
[23] = heptanal, TERGITOL NP-9, 100° C., 200 ppm Rh, 60 psia 2:1 H2:CO
[24] = day 0.9, […], CO 51, H2 59, C4H8 20 psia
[25] = day 2.0, 101 °C, CO 51, H2 47, C4H8 22 psia
[26] = day 3.0, 101 °C, CO 20, H2 53, C4H8 24 psia
[27] = day 4.0, 101 °C, CO 20, H2 30, C4H8 39 psia
[28] = day 5.6, 101 °C, CO 15, H2 64, C4H8 31 psia
[29] = day 5.9 (so in the source), 101 °C, CO 15, H2 63, C4H8 31 psia
[30] = day 1, reactors 80.1/85.8, CO 17.0/9.9 psia
[31] = day 2, reactors 80.0/85.6, CO 7.8/2.2 psia
[32] = day 3, reactors 80.1/85.7, CO 8.1/6.5 psia
[33] = day 6, reactors 80.0/85.0, CO 10.1/8.3 psia

O=S(=O)([O-])c1cccc(P(c2ccccc2)c2ccccc2)c1.[Na+]
Linear/Branched Aldehyde Mole Ratio [1, 7]: 26.6
Reaction Rate (C9 aldehydes) [1, 7]: 0.47 G moles/L/hr
Linear/Branched Aldehyde Mole Ratio [1, 8]: 17.6
Reaction Rate (C9 aldehydes) [1, 8]: 1.12 G moles/L/hr
Linear/Branched Aldehyde Mole Ratio [1, 9]: 18.7
Reaction Rate (C9 aldehydes) [1, 9]: 0.95 G moles/L/hr
Linear/Branched Aldehyde Mole Ratio [1, 10]: 23.9
Reaction Rate (C9 aldehydes) [1, 10]: 0.71 G moles/L/hr
Linear/Branched Aldehyde Mole Ratio [1, 11]: 19.1
Reaction Rate (C9 aldehydes) [1, 11]: 0.98 G moles/L/hr
Linear/Branched Aldehyde Mole Ratio [1, 12]: 14.8
Reaction Rate [1, 12]: 4.17 G moles/L/hr
Linear/Branched Aldehyde Mole Ratio [1, 13]: 40.9
Reaction Rate [1, 13]: 0.11 G Moles/L/Hr
Linear/Branched Aldehyde Mole Ratio [1, 14]: 5.8
Reaction Rate [1, 14]: 2.84 G Moles/L/Hr
Linear/Branched Aldehyde Mole Ratio [2, 15]: 3.4
Reaction Rate (C13 aldehydes) [2, 15]: 1.37 Gram/Moles L/Hr
Linear/Branched Aldehyde Mole Ratio [2, 16]: 16.9
Reaction Rate (C13 aldehydes) [2, 16]: 1.13 Gram/Moles L/Hr
Linear/Branched Aldehyde Mole Ratio [2, 17]: 4.1
Reaction Rate (C13 aldehydes) [2, 17]: 1.41 Gram/Moles L/Hr
Linear/Branched Aldehyde Mole Ratio [2, 18]: 9.56
Reaction Rate (C13 aldehydes) [2, 18]: 1.24 Gram/Moles L/Hr
Linear/Branched Aldehyde Mole Ratio [2, 19]: 5.5
Reaction Rate (C13 aldehydes) [2, 19]: 0.51 Gram/Moles L/Hr
Linear/Branched Aldehyde Mole Ratio [2, 12]: 10.8
Reaction Rate [2, 12]: 1.04 G moles/L/hr
Linear/Branched Aldehyde Mole Ratio [2, 13]: 43.4
Reaction Rate [2, 13]: 0.03 G Moles/L/Hr
Linear/Branched Aldehyde Mole Ratio [2, 20]: 12.0
Reaction Rate [2, 20]: 0.72 G moles/L/hr
Linear/Branched Aldehyde Mole Ratio [2, 21]: 13.2
Reaction Rate [2, 21]: 0.51 G moles/L/hr
Linear/Branched Aldehyde Mole Ratio [2, 22]: 13.6
Reaction Rate [2, 22]: 0.62 G moles/L/hr
Linear/Branched Aldehyde Mole Ratio [2, 23]: 14.2
Reaction Rate [2, 23]: 0.77 G moles/L/hr
Linear/Branched Aldehyde Mole Ratio [2, 14]: 6.6
Reaction Rate [2, 14]: 4.49 G Moles/L/Hr
Linear/Branched Aldehyde Mole Ratio [3]: 12.6
Reaction Rate [3]: 0.65 G moles/L/hr
Linear/Branched Aldehyde Mole Ratio [4, 24]: 7.68
Rate (C5 aldehydes), daily average [4, 24]: 1.68 gmoles/L/Hr
Linear/Branched Aldehyde Mole Ratio [4, 25]: 9.21
Rate (C5 aldehydes), daily average [4, 25]: 1.81 gmoles/L/Hr
Linear/Branched Aldehyde Mole Ratio [4, 26]: 21.08
Rate (C5 aldehydes), daily average [4, 26]: 1.60 gmoles/L/Hr
Linear/Branched Aldehyde Mole Ratio [4, 27]: 19.83
Rate (C5 aldehydes), daily average [4, 27]: 2.50 gmoles/L/Hr
Linear/Branched Aldehyde Mole Ratio [4, 28]: 23.74
Rate (C5 aldehydes), daily average [4, 28]: 2.05 gmoles/L/Hr
Linear/Branched Aldehyde Mole Ratio [4, 29]: 22.82
Rate (C5 aldehydes), daily average [4, 29]: 2.06 gmoles/L/Hr
change in ligand concentration of reaction mediums [5]: no significant change
C9 Aldehydes (rate) [6, 30]: 1.02 gmoles/L/hr
Linear/Branched Aldehyde Ratio [6, 30]: 14.0
C9 Aldehydes (rate) [6, 31]: 0.84 gmoles/L/hr
Linear/Branched Aldehyde Ratio [6, 31]: 27.2
C9 Aldehydes (rate) [6, 32]: 0.81 gmoles/L/hr
Linear/Branched Aldehyde Ratio [6, 32]: 24.7
C9 Aldehydes (rate) [6, 33]: 1.02 gmoles/L/hr
Linear/Branched Aldehyde Ratio [6, 33]: 22.5
